Measurements as given in PMC5218480 (PLoS ONE, 2017).

Tested on: MV-4-11 cells
Assay: Gene expression microarray analysis (Affymetrix PrimeView) and GSEA
Type: cell-based, human
Parameters: RFU PODN (11730768_x_at) / Fold change /veh PODN (11730768_x_at) / RFU LINC00158 (11744669_a_at) / Fold change /veh LINC00158 (11744669_a_at) / RFU DUSP10 (11751237_a_at) / Fold change /veh DUSP10 (11751237_a_at) / RFU ID3 (11757404_x_at) / Fold change /veh ID3 (11757404_x_at) / RFU PLEKHG5 (11737974_s_at) / Fold change /veh PLEKHG5 (11737974_s_at) / RFU LRRC4B (11730491_at) / Fold change /veh LRRC4B (11730491_at) / RFU GIMAP4 (11747438_a_at) / Fold change /veh GIMAP4 (11747438_a_at) / RFU KRT8 (11758183_x_at) / Fold change /veh KRT8 (11758183_x_at) / RFU CNN1 (11734310_a_at) / Fold change /veh CNN1 (11734310_a_at) / RFU VPS37D (11726825_at) / Fold change /veh VPS37D (11726825_at) / RFU C10orf10 (11716522_x_at) / Fold change /veh C10orf10 (11716522_x_at) / RFU KIR2DL2 /// KIR2DL4 /// KIR2DL5A /// KIR2DL5B /// KIR2DS1 /// KIR2DS2 /// KIR2DS3 /// KIR2DS4 /// KIR3DL3 /// KIR3DL3 /// KIR3DS1 (11738374_at) / Fold change /veh KIR2DL2 /// KIR2DL4 /// KIR2DL5A /// KIR2DL5B /// KIR2DS1 /// KIR2DS2 /// KIR2DS3 /// KIR2DS4 /// KIR3DL3 /// KIR3DL3 /// KIR3DS1 (11738374_at) / RFU C1QL1 (11718748_at) / Fold change /veh C1QL1 (11718748_at) / RFU TMPRSS4 (11747572_a_at) / Fold change /veh TMPRSS4 (11747572_a_at) / RFU HAMP (11756126_x_at) / Fold change /veh HAMP (11756126_x_at) / RFU RNFT2 (11725882_a_at) / Fold change /veh RNFT2 (11725882_a_at) / RFU NR4A2 (11747474_a_at) / Fold change /veh NR4A2 (11747474_a_at) / RFU ABCC12 (11746883_a_at) / Fold change /veh ABCC12 (11746883_a_at) / RFU TMEM136 (11760407_x_at) / Fold change /veh TMEM136 (11760407_x_at) / RFU CLDN22 /// WWC2 (11732394_at) / Fold change /veh CLDN22 /// WWC2 (11732394_at) / RFU HLA-DPB1 (11760878_x_at) / Fold change /veh HLA-DPB1 (11760878_x_at) / RFU SPINT1 (11716480_a_at) / Fold change /veh SPINT1 (11716480_a_at) / RFU GAP43 (11754022_s_at) / Fold change /veh GAP43 (11754022_s_at) / RFU A4GNT (11735810_at) / Fold change /veh A4GNT (11735810_at) / RFU PRB3 (11715151_x_at) / Fold change /veh PRB3 (11715151_x_at) / RFU TUBB4B (11761932_at) / Fold change /veh TUBB4B (11761932_at) / RFU CAPN14 (11732068_a_at) / Fold change /veh CAPN14 (11732068_a_at) / RFU TMCC2 (11721928_a_at) / Fold change /veh TMCC2 (11721928_a_at) / RFU IRGQ (11745062_a_at) / Fold change /veh IRGQ (11745062_a_at) / RFU FAM174B (11720279_a_at) / Fold change /veh FAM174B (11720279_a_at) / RFU TMPRSS4 (11748680_a_at) / Fold change /veh TMPRSS4 (11748680_a_at) / RFU FAM212B (11763350_a_at) / Fold change /veh FAM212B (11763350_a_at) / RFU PLEKHG5 (11743358_a_at) / Fold change /veh PLEKHG5 (11743358_a_at) / RFU ZSCAN30 (11745921_a_at) / Fold change /veh ZSCAN30 (11745921_a_at) / RFU CMKLR1 (11741424_a_at) / Fold change /veh CMKLR1 (11741424_a_at) / RFU LOC101060620 /// MAPK8IP1 (11723275_at) / Fold change /veh LOC101060620 /// MAPK8IP1 (11723275_at) / RFU SPTSSB (11747773_x_at) / Fold change /veh SPTSSB (11747773_x_at) / RFU PRSS12 (11739890_at) / Fold change /veh PRSS12 (11739890_at) / RFU BIN1 (11741810_x_at) / Fold change /veh BIN1 (11741810_x_at) / RFU WNT11 (11732464_a_at) / Fold change /veh WNT11 (11732464_a_at) / RFU C10orf10 (11716521_a_at) / Fold change /veh C10orf10 (11716521_a_at) / RFU C5orf56 (11738089_at) / Fold change /veh C5orf56 (11738089_at) / RFU CYB561 (11721691_x_at) / Fold change /veh CYB561 (11721691_x_at) / RFU ANKRD19P (11752326_a_at) / Fold change /veh ANKRD19P (11752326_a_at) / RFU OR2T12 /// OR2T33 /// OR2T8 (11738714_s_at) / Fold change /veh OR2T12 /// OR2T33 /// OR2T8 (11738714_s_at) / RFU VCAN (11748164_a_at) / Fold change /veh VCAN (11748164_a_at) / RFU JSRP1 (11732532_at) / Fold change /veh JSRP1 (11732532_at) / RFU KRTAP10-11 (11738290_x_at) / Fold change /veh KRTAP10-11 (11738290_x_at) / RFU MYO3A (11730013_a_at) / Fold change /veh MYO3A (11730013_a_at) / RFU EBF3 (11725865_a_at) / Fold change /veh EBF3 (11725865_a_at) / RFU CAMK2N1 (11719241_x_at) / Fold change /veh CAMK2N1 (11719241_x_at) / RFU C5orf56 (11738088_a_at) / Fold change /veh C5orf56 (11738088_a_at) / RFU OLFML3 (11715873_a_at) / Fold change /veh OLFML3 (11715873_a_at) / RFU LOC100653217 /// NTM (11731650_a_at) / Fold change /veh LOC100653217 /// NTM (11731650_a_at) / RFU MAPK11 (11762145_a_at) / Fold change /veh MAPK11 (11762145_a_at) / RFU FIZ1 (11724087_x_at) / Fold change /veh FIZ1 (11724087_x_at) / RFU OASL (11726364_x_at) / Fold change /veh OASL (11726364_x_at) / RFU SOX15 (11748057_x_at) / Fold change /veh SOX15 (11748057_x_at) / RFU CD79A (11719716_a_at) / Fold change /veh CD79A (11719716_a_at) / RFU HIST1H1D (11736915_at) / Fold change /veh HIST1H1D (11736915_at) / RFU CASKIN2 (11723855_a_at) / Fold change /veh CASKIN2 (11723855_a_at) / RFU LOC730098 (11760151_x_at) / Fold change /veh LOC730098 (11760151_x_at) / RFU OR4N2 (11742367_at) / Fold change /veh OR4N2 (11742367_at) / RFU PRRT2 (11749266_a_at) / Fold change /veh PRRT2 (11749266_a_at) / RFU SNX32 (11753110_a_at) / Fold change /veh SNX32 (11753110_a_at) / RFU CDHR5 (11726645_a_at) / Fold change /veh CDHR5 (11726645_a_at) / RFU RCAN1 (11760418_a_at) / Fold change /veh RCAN1 (11760418_a_at) / RFU FAM167A (11723789_a_at) / Fold change /veh FAM167A (11723789_a_at) / RFU FAM26E (11764081_at) / Fold change /veh FAM26E (11764081_at) / RFU ISYNA1 (11749810_s_at) / Fold change /veh ISYNA1 (11749810_s_at) / RFU ACY1 (11761880_at) / Fold change /veh ACY1 (11761880_at) / RFU 11764098_at / Fold change /veh 11764098_at / RFU SAMD14 (11745864_x_at) / Fold change /veh SAMD14 (11745864_x_at) / RFU NPB (11741838_a_at) / Fold change /veh NPB (11741838_a_at) / RFU TMPRSS6 (11731388_a_at) / Fold change /veh TMPRSS6 (11731388_a_at) / RFU KRTAP10-2 (11738614_at) / Fold change /veh KRTAP10-2 (11738614_at) / RFU ARHGAP8 /// PRR5-ARHGAP8 (11727945_x_at) / Fold change /veh ARHGAP8 /// PRR5-ARHGAP8 (11727945_x_at) / RFU KRTAP5-7 /// NADSYN1 (11734609_at) / Fold change /veh KRTAP5-7 /// NADSYN1 (11734609_at) / RFU RASL12 (11751679_a_at) / Fold change /veh RASL12 (11751679_a_at) / RFU CDKN2B (11736163_a_at) / Fold change /veh CDKN2B (11736163_a_at) / RFU PRF1 (11729649_at) / Fold change /veh PRF1 (11729649_at) / RFU, ZNF638 /// ZNF638-IT1 / Fold change vs veh, ZNF638 /// ZNF638-IT1 / RFU, PANK3 / Fold change vs veh, PANK3 / RFU, SH3YL1 / Fold change vs veh, SH3YL1 / RFU, ZEB2 / Fold change vs veh, ZEB2 / RFU, NRIP1 / Fold change vs veh, NRIP1 / RFU, PTTG1IP / Fold change vs veh, PTTG1IP / RFU, CAPN2 / Fold change vs veh, CAPN2 / RFU, MED14 / Fold change vs veh, MED14 / RFU, SNORA58 / Fold change vs veh, SNORA58 / RFU, C1orf63 / Fold change vs veh, C1orf63 / RFU, LRRFIP1 / Fold change vs veh, LRRFIP1 / RFU, NDUFAF7 / Fold change vs veh, NDUFAF7 / RFU, SLC12A2 / Fold change vs veh, SLC12A2 / RFU, IBTK / Fold change vs veh, IBTK / RFU, ESF1 / Fold change vs veh, ESF1 / Fold change vs veh, TMEM50B / RFU, TAOK1 / Fold change vs veh, TAOK1 / RFU, ACBD3 / Fold change vs veh, ACBD3 / RFU, TMA16 / Fold change vs veh, TMA16 / RFU, RWDD3 / Fold change vs veh, RWDD3 / RFU, BCAT1 / Fold change vs veh, BCAT1 / RFU, EDEM3 / Fold change vs veh, EDEM3 / RFU, TMEM33 / Fold change vs veh, TMEM33 / RFU, WDR75 / Fold change vs veh, WDR75 / RFU, AHCTF1 / Fold change vs veh, AHCTF1 / RFU, TFRC / Fold change vs veh, TFRC / RFU, ZDHHC17 / Fold change vs veh, ZDHHC17 / RFU, NOM1 / Fold change vs veh, NOM1 / RFU, ARL8B / Fold change vs veh, ARL8B / RFU, ZBTB11 / Fold change vs veh, ZBTB11 / RFU, TAMM41 / Fold change vs veh, TAMM41 / RFU, KIAA1704 /// LOC100996395 / Fold change vs veh, KIAA1704 /// LOC100996395 / RFU, ING1 / Fold change vs veh, ING1 / RFU, TRMT61B / Fold change vs veh, TRMT61B / RFU, FUBP3 / Fold change vs veh, FUBP3 / RFU, TP53 / Fold change vs veh, TP53 / RFU, TNKS2 / Fold change vs veh, TNKS2 / RFU, ZFP14 / Fold change vs veh, ZFP14 / RFU, ACTR2 / Fold change vs veh, ACTR2 / RFU, PPP3R1 / Fold change vs veh, PPP3R1 / RFU, PIK3R1 / Fold change vs veh, PIK3R1 / RFU, HNRNPA1 / Fold change vs veh, HNRNPA1 / RFU, RNF170 / Fold change vs veh, RNF170 / RFU, ZNF28 / Fold change vs veh, ZNF28 / RFU, RNGTT / Fold change vs veh, RNGTT / RFU, OGT / Fold change vs veh, OGT / RFU, BRD1 / Fold change vs veh, BRD1 / RFU, MARS / Fold change vs veh, MARS / RFU, ZNF655 / Fold change vs veh, ZNF655 / RFU, FAHD1 / Fold change vs veh, FAHD1 / RFU, BDP1 / Fold change vs veh, BDP1 / RFU, LRRCC1 / Fold change vs veh, LRRCC1 / RFU, ARID1A / Fold change vs veh, ARID1A / RFU, ZNF146 / Fold change vs veh, ZNF146 / RFU, ZNF330 / Fold change vs veh, ZNF330 / RFU, GPN3 / Fold change vs veh, GPN3 / RFU, C9orf123 / Fold change vs veh, C9orf123 / RFU, N4BP2L2 / Fold change vs veh, N4BP2L2 / RFU, ARFIP1 / Fold change vs veh, ARFIP1 / RFU, FAM179B / Fold change vs veh, FAM179B / RFU, BCL10 / Fold change vs veh, BCL10 / RFU, UHRF1BP1L / Fold change vs veh, UHRF1BP1L / RFU, BET1 / Fold change vs veh, BET1 / RFU, CNOT2 / Fold change vs veh, CNOT2 / RFU, ZNF268 / Fold change vs veh, ZNF268 / Fold change vs veh, ZNF507 / RFU, DGCR2 / Fold change vs veh, DGCR2 / RFU, WDSUB1 / Fold change vs veh, WDSUB1 / Fold change vs veh, HSP90B1 /// MIR3652 / RFU, ADSS / Fold change vs veh, ADSS / RFU, GK / Fold change vs veh, GK / RFU, ZNF148 / Fold change vs veh, ZNF148 / RFU, TAF9 / Fold change vs veh, TAF9 / RFU, SLC1A5 / Fold change vs veh, SLC1A5 / RFU, SLMO2 / Fold change vs veh, SLMO2 / RFU, ABCC4 / Fold change vs veh, ABCC4 / RFU, LOC101060439 /// RAP1B / Fold change vs veh, LOC101060439 /// RAP1B / RFU, RFX7 / Fold change vs veh, RFX7 / RFU, GTPBP10 / Fold change vs veh, GTPBP10 / RFU, CNEP1R1 / Fold change vs veh, CNEP1R1 / RFU, BIVM-ERCC5 /// ERCC5 / Fold change vs veh, BIVM-ERCC5 /// ERCC5 / RFU, ILF3 / Fold change vs veh, ILF3 / RFU 11762660_at / Fold change /veh 11762660_at / RFU VCAN (11757783_s_at) / Fold change /veh VCAN (11757783_s_at) / RFU DDX43 (11728927_at) / Fold change /veh DDX43 (11728927_at) / RFU KRT8 (11758188_x_at) / Fold change /veh KRT8 (11758188_x_at) / RFU NKD1 (11759106_at) / Fold change /veh NKD1 (11759106_at) / RFU SRD5A1 (11742802_a_at) / Fold change /veh SRD5A1 (11742802_a_at) / RFU TPSAB1 /// TPSB2 (11721975_s_at) / Fold change /veh TPSAB1 /// TPSB2 (11721975_s_at) / RFU GSTM3 (11746129_a_at) / Fold change /veh GSTM3 (11746129_a_at) / RFU IL23R (11737362_x_at) / Fold change /veh IL23R (11737362_x_at) / RFU TMEM51 (11727254_a_at) / Fold change /veh TMEM51 (11727254_a_at) / RFU PIWIL2 (11732686_x_at) / Fold change /veh PIWIL2 (11732686_x_at) / RFU ORM1 (11744905_x_at) / Fold change /veh ORM1 (11744905_x_at) / RFU CCDC152 (11743942_at) / Fold change /veh CCDC152 (11743942_at) / RFU ECM1 (11717891_a_at) / Fold change /veh ECM1 (11717891_a_at) / RFU IL23R (11748794_a_at) / Fold change /veh IL23R (11748794_a_at) / RFU TNFAIP8L3 (11732012_x_at) / Fold change /veh TNFAIP8L3 (11732012_x_at) / RFU MBOAT4 (11741988_at) / Fold change /veh MBOAT4 (11741988_at) / RFU 11764193_at / Fold change /veh 11764193_at / RFU TMEM53 (11763286_at) / Fold change /veh TMEM53 (11763286_at) / RFU MAGEB2 (11727129_at) / Fold change /veh MAGEB2 (11727129_at) / RFU TMEM200A (11744735_a_at) / Fold change /veh TMEM200A (11744735_a_at) / RFU CCDC152 (11751479_a_at) / Fold change /veh CCDC152 (11751479_a_at) / RFU FAM211A (11726209_a_at) / Fold change /veh FAM211A (11726209_a_at) / RFU RGS16 (11746705_a_at) / Fold change /veh RGS16 (11746705_a_at) / RFU VCAN (11755009_s_at) / Fold change /veh VCAN (11755009_s_at) / RFU RHOB (11743442_s_at) / Fold change /veh RHOB (11743442_s_at) / RFU RGS16 (11720943_a_at) / Fold change /veh RGS16 (11720943_a_at) / RFU RGS16 (11720944_at) / Fold change /veh RGS16 (11720944_at) / RFU, VPS4B / Fold change vs veh, VPS4B / RFU, CREB1 / Fold change vs veh, CREB1 / RFU, DNAJC13 / Fold change vs veh, DNAJC13 / RFU, GNAQ / Fold change vs veh, GNAQ / RFU, CDK5R1 / Fold change vs veh, CDK5R1 / RFU, ZRANB3 / Fold change vs veh, ZRANB3 / RFU, CUL4A / Fold change vs veh, CUL4A / RFU, CCNY / Fold change vs veh, CCNY / RFU, UFL1 / Fold change vs veh, UFL1 / RFU, COG3 / Fold change vs veh, COG3 / RFU, DIAPH2 / Fold change vs veh, DIAPH2 / RFU, SKA2 / Fold change vs veh, SKA2 / RFU, AFF3 / Fold change vs veh, AFF3 / RFU, LMF1 / Fold change vs veh, LMF1 / RFU, IPO11 / Fold change vs veh, IPO11 / RFU, DFFB / Fold change vs veh, DFFB / RFU, FOXP1 / Fold change vs veh, FOXP1 / RFU, CARD8 / Fold change vs veh, CARD8 / RFU, STRN3 / Fold change vs veh, STRN3 / RFU, ADK / Fold change vs veh, ADK / RFU, RASSF2 / Fold change vs veh, RASSF2 / RFU, WIPF1 / Fold change vs veh, WIPF1 / RFU, LARP1B / Fold change vs veh, LARP1B / RFU, RASA1 / Fold change vs veh, RASA1 / RFU, RB1 / Fold change vs veh, RB1 / RFU, PPFIA1 / Fold change vs veh, PPFIA1 / RFU, MAT2A / Fold change vs veh, MAT2A / RFU, CCT5 / Fold change vs veh, CCT5 / RFU, WDR92 / Fold change vs veh, WDR92 / RFU, CUX1 / Fold change vs veh, CUX1 / RFU, TTC7A / Fold change vs veh, TTC7A / RFU, TMEM135 / Fold change vs veh, TMEM135 / RFU, DEPTOR / Fold change vs veh, DEPTOR / RFU, CPM / Fold change vs veh, CPM / RFU, DNAJB6 / Fold change vs veh, DNAJB6 / RFU, CACNA2D3 / Fold change vs veh, CACNA2D3 / RFU, DTX4 / Fold change vs veh, DTX4 / RFU, TFCP2 / Fold change vs veh, TFCP2 / RFU, GMCL1 /// GMCL1P1 / Fold change vs veh, GMCL1 /// GMCL1P1 / RFU, AEBP2 / Fold change vs veh, AEBP2 / RFU, SNHG1 /// SNORD22 /// SNORD25 /// SNORD26 /// SNORD27 /// SNORD28 /// SNORD29 /// SNORD31 / Fold change vs veh, SNHG1 /// SNORD22 /// SNORD25 /// SNORD26 /// SNORD27 /// SNORD28 /// SNORD29 /// SNORD31 / Fold change (Aza/veh), C12orf56 (ProbeSet 11735607_a_at) / Fold change (ACY-1035/veh), C12orf56 (ProbeSet 11735607_a_at) / Fold change (Aza/veh), FGFR1OP (ProbeSet 11751329_s_at) / Fold change (ACY-1035/veh), FGFR1OP (ProbeSet 11751329_s_at) / Fold change (Aza/veh), VPS36 (ProbeSet 11739960_a_at) / Fold change (ACY-1035/veh), VPS36 (ProbeSet 11739960_a_at) / RFU SYPL1 (11715823_x_at) / Fold change /veh SYPL1 (11715823_x_at) / RFU IGFBP7 (11715501_s_at) / Fold change /veh IGFBP7 (11715501_s_at) / RFU REEP3 (11722064_at) / Fold change /veh REEP3 (11722064_at) / RFU IGLL1 (11728026_x_at) / Fold change /veh IGLL1 (11728026_x_at): dose or concentration left out as unconfirmed
Conditions: MV-4-11 cells, 48 hours

Structure (SMILES): Nc1ncn([C@@H]2O[C@H](CO)[C@@H](O)[C@H]2O)c(=O)n1 [azacitidine]
- RFU RGS16 (11746705_a_at): 77.87 RFU
